PMC9090415, “Discovery of small molecule inhibitors of Plasmodium falciparum apicoplast DNA polymerase” (Journal of Enzyme Inhibition and Medicinal Chemistry, 2022)

Biological target: P. falciparum apicoplast DNA polymerase (Pf-apPOL) (Plasmodium falciparum, UniProt Q8ILY1)
Assay: Fluorescence-based high-throughput DNA polymerase assay (molecular beacon), primary screen and dose-response;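 on % inhibition ApPOL 90': test concentration in µM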;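 on % inhibition apPOL 180': test concentration in µM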
Assay type: biochemical
Conditions: for DNA Pol: unit not given, 90 min, 10 µM
Method in brief: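 Single-point screening used 10 µM compound with 20 nM polymerase, 20 nM hairpin substrate and 6 µM dNTPs for 90 min at 25 °C. Confirmatory titrations (2.5–80 µM) followed fluorescence at three times, and IC50 was derived from a fit including a cooperativity term n.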

P. falciparum apicoplast DNA polymerase (Pf-apPOL), sequence (Q8ILY1 entry or part of it): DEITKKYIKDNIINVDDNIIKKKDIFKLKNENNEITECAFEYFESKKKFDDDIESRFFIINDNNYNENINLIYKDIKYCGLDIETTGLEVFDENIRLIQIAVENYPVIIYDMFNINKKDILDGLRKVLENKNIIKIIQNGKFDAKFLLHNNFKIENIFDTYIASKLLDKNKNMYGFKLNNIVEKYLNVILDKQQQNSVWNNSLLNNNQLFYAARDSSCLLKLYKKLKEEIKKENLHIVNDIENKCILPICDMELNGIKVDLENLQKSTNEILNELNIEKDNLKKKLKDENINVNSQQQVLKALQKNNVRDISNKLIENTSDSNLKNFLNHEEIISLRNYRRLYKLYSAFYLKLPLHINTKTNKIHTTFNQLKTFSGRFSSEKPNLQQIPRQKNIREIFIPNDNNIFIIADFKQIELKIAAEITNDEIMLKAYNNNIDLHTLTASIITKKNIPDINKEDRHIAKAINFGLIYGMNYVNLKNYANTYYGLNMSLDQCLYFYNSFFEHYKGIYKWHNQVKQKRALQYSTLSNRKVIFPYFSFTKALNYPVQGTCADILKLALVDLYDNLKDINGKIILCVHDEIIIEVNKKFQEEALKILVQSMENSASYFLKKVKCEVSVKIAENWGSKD

CC(C)(C)c1cc(C(=O)C(C#N)=NNc2cccc(Cl)c2)no1 [Molecule 98, N#CC(=NNc1cccc(c1)Cl)C(=O)c1noc(c1)C(C)(C)C]
DNA Pol ('DNA Pol' of the 186 hits list (primary screen result)): 96
% inhibition Apo pol 10' (DRC-1, concentration 2.5): 10.7073%
% inhibition Apo pol 10' (DRC-1, concentration 5): 31.7551%
% inhibition Apo pol 10' (DRC-1, concentration 10): 51.803%
% inhibition Apo pol 10' (DRC-1, concentration 20): 87.204%
% inhibition Apo pol 10' (DRC-1, concentration 40): 82.704%
% inhibition Apo pol 10' (DRC-1, concentration 80): 96.4114%
% inhibition Apol 90' (DRC-1, 90', concentration 2.5): 12.918%
% inhibition Apol 90' (DRC-1, 90', concentration 5): 31.5705%
% inhibition Apol 90' (DRC-1, 90', concentration 10): 54.1185%
% inhibition Apol 90' (DRC-1, 90', concentration 20): 87.0322%
% inhibition Apol 90' (DRC-1, 90', concentration 40): 80.829%
% inhibition Apol 90' (DRC-1, 90', concentration 80): 96.7924%
% inhibition apPOL 180' (DRC-1, concentration 2.5): 9.726%
% inhibition apPOL 180' (DRC-1, concentration 5): 23.8574%
% inhibition apPOL 180' (DRC-1, concentration 10): 46.8466%
% inhibition apPOL 180' (DRC-1, concentration 20): 85.1856%
% inhibition apPOL 180' (DRC-1, concentration 40): 79.4059%
% inhibition apPOL 180' (DRC-1, concentration 80): 96.5379%
% inhibition ApPOL 90' (DRC-2, 90', concentration 20 (unit not given)): 61%
% inhibition Apo pol 5' (DRC-2, concentration 2.5): 8%
% inhibition Apo pol 5' (DRC-2, concentration 5): 18%
% inhibition Apo pol 5' (DRC-2, concentration 10): 30%
% inhibition Apo pol 5' (DRC-2, concentration 20): 47%
% inhibition Apo pol 5' (DRC-2, concentration 40): 46%
% inhibition Apo pol 5' (DRC-2, concentration 80): 61%
% inhibition Apo pol 5' (DRC-2, concentration 80 (unit not given)): 61%
% inhibition Apol 40' (DRC-2, concentration 2.5): 10%
% inhibition Apol 40' (DRC-2, concentration 5): 24%
% inhibition Apol 40' (DRC-2, concentration 10): 40%
% inhibition Apol 40' (DRC-2, concentration 20): 60%
% inhibition Apol 40' (DRC-2, concentration 40): 56%
% inhibition Apol 40' (DRC-2, concentration 80): 76%
% inhibition ApPOL 90' (DRC-2, 90', concentration 2.5): 8.47%
% inhibition ApPOL 90' (DRC-2, 90', concentration 5): 21%
% inhibition ApPOL 90' (DRC-2, 90', concentration 10): 39%
% inhibition ApPOL 90' (DRC-2, 90', concentration 20): 61%
% inhibition ApPOL 90' (DRC-2, 90', concentration 40): 58%
% inhibition ApPOL 90' (DRC-2, 90', concentration 80): 79%
% inhibition apPOL 180' (DRC-2, concentration 2.5): 2.49%
% inhibition apPOL 180' (DRC-2, concentration 5): 14%
% inhibition apPOL 180' (DRC-2, concentration 10): 31%
% inhibition apPOL 180' (DRC-2, concentration 20): 57%
% inhibition apPOL 180' (DRC-2, concentration 40): 55%
% inhibition apPOL 180' (DRC-2, concentration 80): 81%
DNA Pol (primary screen value of the library well): 96
